Assay results: ChEMBL document CHEMBL1201862, “PubChem BioAssay data set” (2004)
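48-hour exposure; five concentrations; linearly interpolated endpoints. GI50 marks 50% less growth.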 Active and inactive are the calls of the source. No stated cut-off is given here; in the data, active = GI50 up to about 1.1 µM and inactive = higher.

What was measured:
Assay in all cases: DTP human tumour cell line panel, 48 h
U-251 = system: U-251
SNB-75 = system: SNB-75
ACHN = system: ACHN
SR = system: SR
SNB-19 = system: SNB-19
EKVX = system: EKVX
SK-MEL-5 = system: SK-MEL-5
MDA-MB-231 = system: MDA-MB-231
NCI-H226 = system: NCI-H226
OVCAR-4 = system: OVCAR-4
BT-549 = system: BT-549
NCI-H460 = system: NCI-H460
COLO 205 = system: COLO 205
RPMI-8226 = system: RPMI-8226
HCT-116 = system: HCT-116
CAKI-1 = system: CAKI-1
HCT-15 = system: HCT-15
PC-3 = system: PC-3
T47D = system: T47D

| SMILES | GI50 (U-251) | GI50 (SNB-75) | GI50 (ACHN) | GI50 (SR) | GI50 (SNB-19) | GI50 (EKVX) | GI50 (SK-MEL-5) | GI50 (MDA-MB-231) | GI50 (NCI-H226) | GI50 (OVCAR-4) | GI50 (BT-549) | GI50 (NCI-H460) | GI50 (COLO 205) | GI50 (RPMI-8226) | GI50 (HCT-116) | GI50 (CAKI-1) | GI50 (HCT-15) | GI50 (PC-3) | GI50 (T47D) |
| --- | --- | --- | --- | --- | --- | --- | --- | --- | --- | --- | --- | --- | --- | --- | --- | --- | --- | --- | --- |
| COc1ccccc1NC(=S)N/N=C/c1cccc(C)n1 | 4.26 µM (inactive) | 5.62 µM (inactive) | 2.71 µM (inactive) | 2.43 µM (inactive) | 10.9 µM (inactive) | 4.67 µM (inactive) | 4.17 µM (inactive) | 3.52 µM (inactive) | 5.82 µM (inactive) | 14.2 µM (inactive) | 15.1 µM (inactive) | 2.49 µM (inactive) | 1.68 µM (inactive) | 2.11 µM (inactive) | 3.4 µM (inactive) | 4.75 µM (inactive) | 2.31 µM | 4.5 µM (inactive) | – |
| COc1ccc(/C=C/C(=O)CC(=O)/C=C/c2ccc(OC)cc2)cc1 | 41.3 µM (inactive) | > 100 µM (inactive) | – | – | 89.9 µM (inactive) | 54.7 µM (inactive) | 67.6 µM (inactive) | 51.4 µM (inactive) | > 100 µM (inactive) | – | – | 33 µM (inactive) | 69.5 µM (inactive) | 38.1 µM (inactive) | 15.3 µM (inactive) | 62.4 µM (inactive) | 42.9 µM | 19.9 µM (inactive) | > 100 µM (inactive) |
| CCc1cccc(CC)c1Nc1nc2c(s1)C(=O)c1ccccc1C2=O | 15.8 µM (inactive) | 11.8 µM (inactive) | 17.6 µM (inactive) | 23.3 µM (inactive) | 17 µM (inactive) | 16.3 µM (inactive) | 20.7 µM (inactive) | 16.5 µM (inactive) | – | – | – | 16.9 µM (inactive) | 22.9 µM (inactive) | 24.7 µM (inactive) | 16.7 µM (inactive) | 16.4 µM (inactive) | 25.7 µM | 13.3 µM (inactive) | 33.6 µM (inactive) |
| Nc1nc2c(ncn2C2OC(CO)C(O)C2N)c(=O)[nH]1 (centres undefined) | > 100 µM (inactive) | > 100 µM (inactive) | > 100 µM (inactive) | – | > 100 µM (inactive) | – | – | – | – | – | – | > 100 µM (inactive) | > 100 µM (inactive) | – | > 100 µM (inactive) | > 100 µM (inactive) | > 100 µM | – | – |
| C=C1C(=O)[C@]23[C@H](O)[C@H]1CC[C@H]2[C@@]12CO[C@@]3(O)C[C@@H]1C(C)(C)CC[C@@H]2O [MEGATHYRIN A] | – | 4.91 µM (inactive) | 4.84 µM (inactive) | 7.55 µM (inactive) | 21.2 µM (inactive) | 9.79 µM (inactive) | 13 µM (inactive) | 5.66 µM (inactive) | 8.22 µM (inactive) | > 25 µM (inactive) | 4.37 µM (inactive) | – | 3.98 µM (inactive) | 7.4 µM (inactive) | 5.21 µM (inactive) | 8.47 µM (inactive) | 6.95 µM | 9.2 µM (inactive) | – |
